From patent publication US20090149429A1, “ANTIVIRAL COMPOUNDS” (Myriad Genetics, Incorporated, priority 2005, published 2009) come the findings set out here.

Molecules are shown by their SMILES.

This data set deals with mock-infected MT-4 cells. Nature of the data set: Compound toxicity in mock-infected MT-4 cells (WST-1 assay). The class given is cell-based. As to conditions: four days incubation, read-out: TC50 (concentration of compound that results in death of 50% of the host cells). The method, then: The HTLV-1 transformed T cell line, MT-4, is highly susceptible to HIV-1 infection. Anti-HIV-1 agents were evaluated in this target cell line by protection from the HIV-induced cytopathic effect. In this assay, viability of both HIV-1 and mock-infected cells was assessed in a […] assay that monitors the ability of metabolically-active cells to reduce the tetrazolium salt WST-1. Cytoprotection by antiviral compounds is indicated by the positive readout of increased WST-1 cleavage.
Briefly, exponentially growing MT-4 cells were mock-infected or batch-infected with the HIV-1 laboratory strain, NL4-3, at a multiplicity of infection of 0.0005. Following a two hour infection, the cells were washed to remove unbound virus and plated in the presence of increasing concentrations of compound. After four days incubation, cytoprotection in the infected cells and compound toxicity in mock-infected cells were analyzed using the WST-1 assay.

For `C=C(C)[C@@H]1CC[C@]2(C(=O)NCc3ccccc3C(=O)O)CC[C@]3(C)[C@H](CC[C@@H]4[C@@]5(C)CC[C@H](OC(=O)CC(C)(C)C(=O)O)C(C)(C)[C@@H]5CC[C@]43C)[C@@H]12` [Compound 39], the CC50 is around 6.3 µM. In the case of `C=C(C)[C@@H]1CC[C@]2(C(=O)NCc3ccc(C(=O)O)cc3)CC[C@]3(C)[C@H](CC[C@@H]4[C@@]5(C)CC[C@H](OC(=O)CC(C)(C)C(=O)O)C(C)(C)[C@@H]5CC[C@]43C)[C@@H]12` [Compound 37] it was around 7.7 µM.
